Experimental data reported in patent publication US9969744B2, “Compounds for use in cognition improvement” (FUNDACIÓN PARA LA INVESTIGACIÓN MÉDICA APLICADA, priority 2014, dated 2018).
Marks after values point to notes of the source that are not given here.

Tests used:
PDE5A1 = target: T1, PDE5A1 (Homo sapiens, UniProt O76074); test: PDE enzyme activity assay (HTRF cGMP), PDE5A; type: biochemical; conditions: recombinant enzyme; read-out: PDE5A1 inhibition (IC50)
T1 construct: they are full-length with N-terminal GST tag; GST (N); purchased BPS Biosciences 60050; host or cells: baculovirus infected Sf9 cells

[1] = tested on: phosphorylated tau (p-Tau); test: AD-related markers in Tg2576 neurons: pTau; type: cell-based, mouse; conditions: Tg2576 primary neurons, compound concentration 50 nM
Procedure: The effects of the compounds on amyloid pathology were analysed in primary cultures after 21 days in-vitro (DIV) of neurons derived from the hippocampus and cortex of Tg2576 mouse embryos. Tg2576 mice express the human 695-aa isoform of APP (hAPP) containing the Swedish double mutation, which favours A3 production. Neurons were treated for two days and collected at day 3, 24 h after the last treatment. First it was analysed the effect of the compounds on hAPP processing by the amyloidogenic pathway by measuring the carboxyl terminal fragment AβPP (C99), which is the precursor of Aβ42. […]
It was next analyzed the effect of the compounds on levels of phosphorylated tau (p-Tau) in the same samples, another marker of AD, using a phospho-specific antibody (AT8) that recognizes hyperphosphorylated epitopes on Ser202/Thr205. […]
To analyze APP-derived fragments and p-Tau levels in primary neuronal cultures, cells were collected in a buffer containing SDS (2%), Tris-HCl (10 mM, pH 7.4), protease inhibitors (1 mM phenylmethylsulfonyl fluoride (PMSF) and Complete Protease Inhibitor Cocktail: Roche Diagnostics) and phosphatase inhibitors (0.1 mM Na3VO4 and 1 mM NaF). […] Aliquots of the supernatant were frozen at […] and their protein concentrations determined by the Bradford method using the Bio-Rad protein assay (Bio-Rad, Hercules, Calif., USA). […]

aged-Tg2576 mice = test: Memory function in aged-Tg2576 mice: Morris water maze (MWM); type: in vivo; conditions: Tg2576 mice (16-18 month), chronic treatment 3-5 weeks, 20 mg/Kg i.p.; retention phase, day 4th; standard error in brackets
Excerpt: The effect on memory function of compounds of the invention was studied in Tg2576 mice (16-18 month) after a chronic treatment of 3-5 weeks by using two different behavioral tasks: the Fear Conditioning (FC) and the Morris water maze (MWM) test, Table 5 (below)
The MWM test was used to evaluate spatial memory. After treatments, groups of animals underwent spatial reference learning and memory testing in the MWM. The water maze was a circular pool (diameter 1.2 m) filled with water maintained at 20° C. and made opaque by the addition of non-toxic white paint. Mice were trained for three consecutive days (8 trials/day) swimming to a raised platform (visible-platform). No distal visible cues were present during this phase. […] In the probe trials the platform was removed from the pool, and the percentage of time spent in the quadrant where the platform was previously set was recorded. All trials were monitored by a camera above the center of the pool connected to a SMART-LD program (Panlab S.L., Barcelona, Spain) for subsequent analysis of escape latencies, swimming speed, path length and percent time spent in each quadrant of the pool during probe trials. […]

Structure (SMILES): CCCc1nn(C)c2c(=O)[nH]c(-c3cc(Cc4ccc(C(=O)Nc5ccccc5N)cc4)ccc3OCC)nc12 [Example 1-11, N-(2-aminophenyl)-4-[[4-ethoxy-3-(1-methyl-7-oxo-3-propyl-6H-pyrazolo[4,3-d]pyrimidin-5-yl)phenyl]methyl]benzamide]
- IC50 (PDE5A1): 10 to 1000 nM
- decrease in pTau levels over basal [1]: ++ (basal x0.2≤(++)<basal x0.4 (reduction between 20% and 40%))
- MWM (% of time on right quadrant) (aged-Tg2576 mice): 33.83 (2.24)^c %
